Data as given in ChEMBL document CHEMBL1146719, “Lysyl 4-aminobenzoic acid derivatives as potent small molecule mimetics of plasminogen kringle 5” (Bioorg Med Chem Lett, 2004).
Peptide text beside a SMILES is read from it.

Species: Homo sapiens
Test: Inhibition of VEGF-stimulated migration of human microvascular endothelial cells
Type: functional, cell-based
Settings: Endothelial cell

CC(=O)N[C@@H](CCCCN)C(=O)N[C@@H](CC(C)C)C(=O)N[C@@H](Cc1ccc(O)cc1)C(=O)N[C@@H](CC(=O)O)C(=O)O (Ac-KLYD-OH)
IC50: 1.2 nM
